Read-outs that look alike come from different tables or passages of the source. One block for each compound: values may come before it.
Assays:
MDM2-p53 interaction = MDM2-p53 interaction (Homo sapiens (Human), UniProt Q00987); settings: for inhibition at 0.03 µM: read-out: MDM2 % inhibition @0.030; for inhibition at 0.001 µM: read-out: MDM2 % inhibition @0.0010; for inhibition at 0.1 µM: read-out: MDM2 % inhibition @0.10
SJSA-1 cells = assay: Protocol B: SJSA-1 CellTiter-Glo luminescent cell viability assay
[1] = read-out: SJSA1 IC50, Protocol B, SJSA-1
[2] = read-out: SJSA1 IC50 (μM) (Protocol B), SJSA-1, Protocol B

Chain of MDM2-p53 interaction (Q00987 whole entry): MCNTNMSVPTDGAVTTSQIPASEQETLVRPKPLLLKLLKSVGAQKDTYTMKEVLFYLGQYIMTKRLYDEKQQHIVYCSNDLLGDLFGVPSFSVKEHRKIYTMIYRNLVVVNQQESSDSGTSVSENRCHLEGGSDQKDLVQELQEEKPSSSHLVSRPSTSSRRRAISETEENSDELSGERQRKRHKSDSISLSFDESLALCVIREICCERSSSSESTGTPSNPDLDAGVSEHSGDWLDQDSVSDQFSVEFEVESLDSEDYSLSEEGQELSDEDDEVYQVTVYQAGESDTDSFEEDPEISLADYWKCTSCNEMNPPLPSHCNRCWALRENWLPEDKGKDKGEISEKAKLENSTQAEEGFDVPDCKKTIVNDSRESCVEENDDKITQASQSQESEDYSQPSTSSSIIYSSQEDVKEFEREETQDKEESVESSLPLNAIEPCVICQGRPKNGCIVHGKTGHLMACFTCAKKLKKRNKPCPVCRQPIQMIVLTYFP

IC50 (SJSA-1 cells; [1]): 1.9 µM | inhibition at 0.03 µM (MDM2-p53 interaction): 35%
SMILES: CCC(O)(c1cc(F)c2c(c1)C(=O)N(Cc1ncc(Cl)cn1)[C@@]2(OCCO)c1ccc(Cl)cc1)[C@H]1CC[C@H](O)CC1 (single isomer, unassigned) [Example 519]

inhibition at 0.1 µM (MDM2-p53 interaction): 73%
SMILES: CCC(O)(c1cc(F)c2c(c1)C(=O)N(Cc1ncc(C#N)cn1)[C@@]2(OCC1(C#N)CC1)c1ccc(Cl)cc1)c1cn(C)cn1 (stereo partly drawn) [Example 463, 2-{[(1R)-1-(4-chlorophenyl)-1-[(1-cyanocyclopropyl)methoxy]-7-fluoro-5-[1-hydroxy-1-(1-methyl-1H-imidazol-4-yl)propyl]-3-oxo-2,3-dihydro-1H-isoindol-2-yl]methyl}pyrimidine-5-carbonitrile]

IC50 (SJSA-1 cells; [1]): 0.092 µM | inhibition at 0.001 µM (MDM2-p53 interaction): 41%
SMILES: CCC(O)(CN1CCNCC1)c1cc(F)c2c(c1)C(=O)N(Cc1ncc(Cl)cn1)[C@@]2(OCC1(F)COC1)c1ccc(Cl)cc1 (single isomer, unassigned) [Example 539]

IC50 (SJSA-1 cells; [1]): 4.2 µM | inhibition at 0.1 µM (MDM2-p53 interaction): 58%
SMILES: CCC(O)(c1cc(F)c2c(c1)C(=O)N(Cc1ncc(Cl)cn1)[C@@]2(OCC1(C(N)=O)CC1)c1ccc(Cl)cc1)c1cn(C)cn1 (stereo partly drawn) [Example 485, 1-({[(1R)-1-(4-chlorophenyl)-2-[(5-chloropyrimidin-2-yl)methyl]-7-fluoro-5-[1-hydroxy-1-(1-methyl-1H-imidazol-4-yl)propyl]-3-oxo-2,3-dihydro-1H-isoindol-1-yl]oxy}methyl)cyclopropane-1-carboxamide]

inhibition at 0.1 µM (MDM2-p53 interaction): 44%
SMILES: CCCC(O)(c1cc(F)c2c(c1)C(=O)N(Cc1ccc(C#N)cn1)[C@@]2(O[C@H]1CCOC1)c1ccc(Cl)cc1)c1cn(C)cn1 (stereo partly drawn) [Example 473, 6-{[(1R)-1-(4-chlorophenyl)-7-fluoro-5-[1-hydroxy-1-(1-methyl-1H-imidazol-4-yl)butyl]-3-oxo-1-[(3S)-oxolan-3-yloxy]-2,3-dihydro-1H-isoindol-2-yl]methyl}pyridine-3-carbonitrile]

inhibition at 0.001 µM (MDM2-p53 interaction): 68%
SMILES: CCC(O)(c1cc(F)c2c(c1)C(=O)N(Cc1ccc(C#N)cn1)[C@@]2(OCCO)c1ccc(Cl)cc1)C1(F)CCOCC1 (single isomer, unassigned) [Example 499]

inhibition at 0.3 µM (MDM2-p53 interaction; read-out: MDM2 % inhibition @0.30): 53%
SMILES: CO[C@]1(c2ccc(Cl)cc2)c2c(F)cc(C(C)(O)c3cnn(C4CN(C(=O)OC(C)(C)C)C4)c3)cc2C(=O)N1Cc1ccc(Cl)cn1 (stereo partly drawn) [Example 457, tert-Butyl 3-(4-{1-[(1R)-1-(4-chlorophenyl)-2-[(5-chloropyridin-2-yl)methyl]-7-fluoro-1-methoxy-3-oxo-2,3-dihydro-1H-isoindol-5-yl]-1-hydroxyethyl}-1H-pyrazol-1-yl)azetidine-1-carboxylate]

IC50 (SJSA-1 cells; [1]): 0.014 µM | inhibition at 0.0003 µM (MDM2-p53 interaction; read-out: MDM2 % inhibition @0.00030): 64%
SMILES: CCC(O)(c1cc(F)c2c(c1)C(=O)N(Cc1ncc(Cl)cn1)[C@@]2(O[C@H]1CCOC1)c1ccc(Cl)cc1)C1(F)CCNCC1 (single isomer, unassigned) [Example 541]

inhibition at 0.001 µM (MDM2-p53 interaction): 83%
SMILES: CCC(O)(c1cc(F)c2c(c1)C(=O)N(Cc1ccc(C#N)cn1)[C@@]2(OC[C@@H](C)O)c1ccc(Cl)cc1)C1(F)CCOCC1 (single isomer, unassigned) [Example 497]

inhibition at 0.01 µM (MDM2-p53 interaction; read-out: MDM2 % inhibition @0.010): 44%
SMILES: CO[C@]1(c2ccc(Cl)cc2)c2c(F)cc(C(C)(O)c3cnn(C4CN(C(=O)OC(C)(C)C)C4)c3)cc2C(=O)N1Cc1ccc(Cl)cn1 (single isomer, unassigned) [Example 458]

inhibition at 0.1 µM (MDM2-p53 interaction): 57%
SMILES: CC[C@](O)(c1cc(F)c2c(c1)C(=O)N(Cc1ncc(Cl)cn1)[C@@]2(O[C@H]1CCOC1)c1ccc(Cl)cc1)C1CCN(C)CC1 [Example 567, (3R)-3-(4-chlorophenyl)-2-[(5-chloropyrimidin-2-yl)methyl]-4-fluoro-6-[(1R)-1-hydroxy-1-(1-methylpiperidin-4-yl)propyl]-3-[(3S)-oxolan-3-yloxy]-2,3-dihydro-1H-isoindol-1-one]

More lines, now with the values behind:

SMILES: CC(C)(O)c1cc(F)c2c(c1)C(=O)N([C@H](c1ccc(Cl)cn1)C(O)CO)[C@@]2(OCC1(O)CC1)c1ccc(Cl)cc1 (stereo partly drawn) [Example 331, (3R)-3-(4-Chlorophenyl)-2-[(1R)-1-(5-chloropyridin-2-yl)-2,3-dihydroxypropyl]-4-fluoro-3-[(1-hydroxycyclopropyl)methoxy]-6-(2-hydroxypropan-2-yl)-2,3-dihydro-1H-isoindol-1-one]
MDM2 % at stated concentration (MDM2-p53 interaction; at 0.030 μM): 49%@0.030

SMILES: CCC(O)(c1cc(F)c2c(c1)C(=O)N(Cc1ccc(C#N)nc1)[C@@]2(O[C@H]1CCOC1)c1ccc(Cl)cc1)c1cn(C)cn1 (single isomer, unassigned) [Example 432]
IC50 (SJSA-1 cells; [1]): 6.2 µM | inhibition at 0.03 µM (MDM2-p53 interaction): 45%

SMILES: CCC(O)(c1cc(F)c2c(c1)C(=O)N(Cc1ccc(C#N)cn1)[C@@]2(O[C@H]1CCOC1)c1ccc(Cl)cc1)c1ccn(C)n1 (single isomer, unassigned) [Example 336]
IC50 (SJSA-1 cells; [1]): 0.16 µM | inhibition at 0.001 µM (MDM2-p53 interaction): 56%

SMILES: CC(=O)N1CCC(C(C)(O)c2cc(F)c3c(c2)C(=O)N(Cc2ccc(Cl)cn2)[C@@]3(OCC2(C#N)CC2)c2ccc(Cl)cc2)CC1 (single isomer, unassigned) [Example 301]
MDM2 % at stated concentration (MDM2-p53 interaction): 75%@0.0010

SMILES: CCC(O)(c1cc(F)c2c(c1)C(=O)N(Cc1ccc(C#N)cn1)[C@@]2(OC1CC(O)C1)c1ccc(Cl)cc1)[C@H]1CC[C@H](O)CC1 (stereo partly drawn) [Example 520, 6-{[(1R)-1-(4-chlorophenyl)-7-fluoro-5-{1-hydroxy-1-[trans-4-hydroxycyclohexyl]propyl}-3-oxo-1-[cis-3-hydroxycyclobutoxy]-2,3-dihydro-1H-isoindol-2-yl]methyl}pyridine-3-carbonitrile]
IC50 (SJSA-1 cells; [1]): 3.9 µM | inhibition at 0.03 µM (MDM2-p53 interaction): 32%

SMILES: CO[C@]1(c2ccc(Cl)cc2)c2ccc(C(C)(O)C(=O)NCCN(C)C)cc2C(=O)N1Cc1ccc(Cl)cn1 (single isomer, unassigned) [Example 150]
MDM2 % at stated concentration (MDM2-p53 interaction; at 0.10 μM): 49%@0.10

SMILES: CO[C@]1(c2ccc(Cl)cc2)c2c(F)cc(C(C)(O)C3CCN(C(C)=O)CC3)cc2C(=O)N1Cc1ncc(Cl)cc1CO (single isomer, unassigned) [Example 424]
IC50 (SJSA-1 cells; Homo sapiens, SJSA-1, read-out: SJSA1 IC50 (μM), Protocol B, SJSA-1): 0.69 µM | inhibition at 0.003 µM (MDM2-p53 interaction; read-out: MDM2 % inhibition @0.0030): 45%

SMILES: CCC(O)(c1cc(F)c2c(c1)C(=O)N(Cc1ccc(C#N)cn1)[C@@]2(OCCOC)c1ccc(Cl)cc1)c1cn(C)cn1 (stereo partly drawn) [Example 429, 6-{[(1R)-1-(4-chlorophenyl)-7-fluoro-5-[1-hydroxy-1-(1-methyl-1H-imidazol-4-yl)propyl]-1-(2-methoxyethoxy)-3-oxo-2,3-dihydro-1H-isoindol-2-yl]methyl}pyridine-3-carbonitrile]
inhibition at 0.1 µM (MDM2-p53 interaction): 65%

SMILES: Cn1cc(C(C)(O)c2cc(F)c3c(c2)C(=O)N(Cc2ccc(Cl)c[n+]2[O-])[C@@]3(OCC2(CO)CC2)c2ccc(Cl)cc2)cn1 (single isomer, unassigned) [Example 407]
MDM2 % at stated concentration (MDM2-p53 interaction): 62%@0.0010

SMILES: COc1ccc(CN2C(=O)c3cc(C(C)(O)c4cnn(C)c4)cc(F)c3[C@]2(OCC2(O)CC2)c2ccc(Cl)cc2)nc1 (stereo partly drawn) [Example 228, (3R)-3-(4-chlorophenyl)-4-fluoro-6-[1-hydroxy-1-(1-methyl-1H-pyrazol-4-yl)ethyl]-3-[(1-hydroxycyclopropyl)methoxy]-2-[(5-methoxypyridin-2-yl)methyl]-2,3-dihydro-1H-isoindol-1-one]
IC50 (SJSA-1 cells; [2]): 0.21 µM | MDM2 % at stated concentration (MDM2-p53 interaction; at 0.010 μM): 61%@0.010

SMILES: COc1ccc(CN2C(=O)c3cc(C(C)(O)c4cnn(C)c4)cc(F)c3[C@]2(OCC2(O)CC2)c2ccc(Cl)cc2)nc1 (stereo partly drawn) [Example 347, (3R)-3-(4-chlorophenyl)-4-fluoro-6-[1-hydroxy-1-(1-methyl-1H-pyrazol-4-yl)ethyl]-3-[(1-hydroxycyclopropyl)methoxy]-2-[(5-methoxypyridin-2-yl)methyl]-2,3-dihydro-1H-isoindol-1-one]
IC50 (SJSA-1 cells; [2]): 1.7 µM | MDM2 % at stated concentration (MDM2-p53 interaction; at 0.10 μM): 63%@0.10

SMILES: CCC(O)(c1cc(F)c2c(c1)C(=O)N(Cc1ccc(C#N)cn1)[C@@]2(O[C@H]1CCOC1)c1ccc(Cl)cc1)c1cnn(C)c1 (single isomer, unassigned) [Example 358]
IC50 (SJSA-1 cells; [2]): 0.039 µM | MDM2 % at stated concentration (MDM2-p53 interaction): 74%@0.0010

SMILES: Cn1cc(C(C)(O)c2cc(F)c3c(c2)C(=O)N(Cc2ncc(F)cc2F)[C@@]3(OCC2(O)CC2)c2ccc(Cl)cc2)cn1 (single isomer, unassigned) [Example 351]
IC50 (SJSA-1 cells; [2]): 4.3 µM | MDM2 % at stated concentration (MDM2-p53 interaction; at 0.10 μM): 25%@0.10

SMILES: Cn1cc(C(O)(c2cc(F)c3c(c2)C(=O)N(Cc2ccc(C#N)cn2)[C@@]3(O[C@H]2CCOC2)c2ccc(Cl)cc2)C(F)(F)F)cn1 (stereo partly drawn) [Example 371, 6-{[(1R)-1-(4-chlorophenyl)-7-fluoro-3-oxo-1-[(3S)-oxolan-3-yloxy]-5-[2,2,2-trifluoro-1-hydroxy-1-(1-methyl-1H-pyrazol-4-yl)ethyl]-2,3-dihydro-1H-isoindol-2-yl]methyl}pyridine-3-carbonitrile]
inhibition at 0.03 µM (MDM2-p53 interaction): 43%

SMILES: CC(C)(O)c1cc(F)c2c(c1)C(=O)N(Cc1ccc(Cl)cn1)[C@@]2(OCC1(CNCCO)CC1)c1ccc(Cl)cc1 [Example 326, (3R)-3-(4-chlorophenyl)-2-[(5-chloropyridin-2-yl)methyl]-4-fluoro-3-[(1-{[(2-hydroxyethyl)amino]methyl}cyclopropyl)methoxy]-6-(2-hydroxypropan-2-yl)-2,3-dihydro-1H-isoindol-1-one]
MDM2 % at stated concentration (MDM2-p53 interaction; at 0.030 μM): 50%@0.030

SMILES: CCC(O)(c1cc(F)c2c(c1)C(=O)N(Cc1ncc(Cl)cc1O)[C@@]2(O[C@H]1C[C@@H](O)C1)c1ccc(Cl)cc1)c1cn(C)cn1 (stereo partly drawn) [Example 488, (3R)-2-[(5-chloro-3-hydroxypyridin-2-yl)methyl]-3-(4-chlorophenyl)-4-fluoro-6-[1-hydroxy-1-(1-methyl-1H-imidazol-4-yl)propyl]-3-[cis-3-hydroxycyclobutoxy]-2,3-dihydro-1H-isoindol-1-one]
inhibition at 0.1 µM (MDM2-p53 interaction): 56%

SMILES: CO[C@]1(c2ccc(Cl)cc2)c2ccc(C(C)(O)C(=O)NCCN(C)C)cc2C(=O)N1Cc1ccc(Cl)cn1 (single isomer, unassigned) [Example 149]
MDM2 % at stated concentration (MDM2-p53 interaction; at 1.0 μM): 53%@1.0
